Source: patent US9283222B2 (priority 2006, dated 2016)
Like-named read-outs stand apart in the source and are kept apart here.

Assays:
[1] = target: Recombinant Human Poly(ADP-Ribose) Polymerase (PARP), PARP-1 (Homo sapiens (Human), UniProt P09874); settings: read-out: PARP-1 (Ki)
PARP in C41 cells = PARP in C41 cells (Homo sapiens (Human), UniProt P09874)
[2] = Table 3, H analogs versus para-F analogs
[3] = Table 3, C41 cells, ratio to comparator EC50
[4] = Table 2, A2 is C1-alkyl versus no A2 (bond)
[5] = Table 1, text calls the values EC50s

Recombinant Human Poly(ADP-Ribose) Polymerase (PARP), PARP-1, sequence (P09874 whole entry): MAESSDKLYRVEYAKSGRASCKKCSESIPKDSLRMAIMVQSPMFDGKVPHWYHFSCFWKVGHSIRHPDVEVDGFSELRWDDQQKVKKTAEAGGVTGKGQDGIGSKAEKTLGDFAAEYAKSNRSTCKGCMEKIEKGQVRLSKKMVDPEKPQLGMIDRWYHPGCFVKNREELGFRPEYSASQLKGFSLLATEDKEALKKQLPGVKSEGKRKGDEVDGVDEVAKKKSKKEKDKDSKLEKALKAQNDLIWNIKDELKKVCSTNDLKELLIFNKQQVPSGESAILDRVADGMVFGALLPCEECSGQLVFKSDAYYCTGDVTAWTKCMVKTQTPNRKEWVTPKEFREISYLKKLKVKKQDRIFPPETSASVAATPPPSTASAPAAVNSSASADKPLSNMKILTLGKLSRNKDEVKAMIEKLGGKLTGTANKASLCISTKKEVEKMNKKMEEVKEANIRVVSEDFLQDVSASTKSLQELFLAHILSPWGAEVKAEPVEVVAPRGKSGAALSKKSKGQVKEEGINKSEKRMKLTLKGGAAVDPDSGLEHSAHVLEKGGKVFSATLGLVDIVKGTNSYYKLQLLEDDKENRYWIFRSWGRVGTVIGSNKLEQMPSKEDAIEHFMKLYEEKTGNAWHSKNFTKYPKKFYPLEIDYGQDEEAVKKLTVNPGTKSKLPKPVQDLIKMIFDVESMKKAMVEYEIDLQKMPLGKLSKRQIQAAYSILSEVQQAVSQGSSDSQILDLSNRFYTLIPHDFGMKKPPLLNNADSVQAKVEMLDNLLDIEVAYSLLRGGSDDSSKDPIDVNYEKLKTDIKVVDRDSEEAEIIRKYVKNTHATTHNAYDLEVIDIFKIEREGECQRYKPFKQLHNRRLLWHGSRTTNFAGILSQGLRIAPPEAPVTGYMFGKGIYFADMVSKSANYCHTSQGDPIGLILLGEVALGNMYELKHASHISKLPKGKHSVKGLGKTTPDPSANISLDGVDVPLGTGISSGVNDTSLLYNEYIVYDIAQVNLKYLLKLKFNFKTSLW
PARP in C41 cells, sequence (P09874 whole entry): as above

Structure (SMILES)	Ki [1, 2] [nM]	Cell EC50 ratio (PARP in C41 cells; [3])	other results
COc1ccc(C(=O)CCC(=O)Nc2cccc(Cc3n[nH]c(=O)c4c3CCCC4)c2)cc1 [drawing 14]	1.9	20.9	
CCN1CCN(C(=O)c2cccc(Cc3n[nH]c(=O)c4c3CCCC4)c2)CC1 [drawing 30]	10	1.8	
NCC(=O)Nc1cc(Cc2n[nH]c(=O)c3c2CCCC3)ccc1F	2.9		Cell EC50 ratio (PARP in C41 cells): 5.8
O=C1CCC(=O)N1c1cc(Cc2n[nH]c(=O)c3c2CCCC3)ccc1F	1.1	0.19	
NC(=O)C1CCCN(C(=O)c2cc(Cc3n[nH]c(=O)c4c3CCCC4)ccc2F)C1 (centres unmarked) [drawing 45]	3	28	
O=C(c1cc(Cc2n[nH]c(=O)c3c2CCCC3)ccc1F)N1CCN(c2ccccc2)CC1 [drawing 35]	3	0.9	
CN1CCN(CCNC(=O)c2cccc(Cc3n[nH]c(=O)c4c3CCCC4)c2)CC1 [drawing 54]	24	31	
O=C(c1cccc(Cc2n[nH]c(=O)c3c2CCCC3)c1)N1CCN(c2ccccc2Cl)CC1 [drawing 36]	10	15	
NCC(=O)Nc1cccc(Cc2n[nH]c(=O)c3c2CCCC3)c1 [drawing 10]	12	22.5	
O=C(c1cc(Cc2n[nH]c(=O)c3c2CCCC3)ccc1F)N1CCN(c2ccccc2F)CC1 [drawing 39]	13	1.3	
CN(C)CCN(C)C(=O)c1cccc(Cc2n[nH]c(=O)c3c2CCCC3)c1	13	3	
O=C1CCC(=O)N1c1cccc(Cc2n[nH]c(=O)c3c2CCCC3)c1	2	1.7	
O=C(c1cccc(Cc2n[nH]c(=O)c3c2CCCC3)c1)N1CCN(c2ncccn2)CC1 [drawing 26]	0.8	0.93	
Cc1c(C(=O)Nc2cc(Cc3n[nH]c(=O)c4c3CCCC4)ccc2F)cnn1-c1ccccc1 [drawing 23]	15.8	17.6	
CC(=O)N1CCN(C(=O)c2cc(Cc3n[nH]c(=O)c4c3CCCC4)ccc2F)CC1 [drawing 29]	0.1	2.3	
O=C(c1cc(Cc2n[nH]c(=O)c3c2CCCC3)ccc1F)N1CCN(c2ccccc2Cl)CC1 [drawing 37]	5	6	
O=C1CCCN1c1cc(Cc2n[nH]c(=O)c3c2CCCC3)ccc1F [drawing 17]	1.2		Cell EC50 ratio (PARP in C41 cells): 0.85
NC(=O)C1CCN(C(=O)c2cc(Cc3n[nH]c(=O)c4c3CCCC4)ccc2F)CC1 [drawing 49]	2.7	25	
O=C(Nc1cc(Cc2n[nH]c(=O)c3c2CCCC3)ccc1F)C1CNC1	0.7		Cell EC50 ratio (PARP in C41 cells): 34.4

Structure (SMILES)	Ki [1, 2] [nM]	Cell EC50 ratio (PARP in C41 cells; [3])	other results
O=C(c1cccc(Cc2n[nH]c(=O)c3c2CCCC3)c1)N1CCC(O)CC1 [drawing 46]	5	13	
O=C(CCCC(=O)Nc1cccc(Cc2n[nH]c(=O)c3c2CCCC3)c1)Nc1ccccc1 [drawing 20]	3.2	3.2	
CN1CCN(CCNC(=O)c2cc(Cc3n[nH]c(=O)c4c3CCCC4)ccc2F)CC1 [drawing 55]	1.1	0.6	
O=C(c1cc(Cc2n[nH]c(=O)c3c2CCCC3)ccc1F)N1CCN(c2ccc(F)cc2)CC1 [drawing 41]	4		Cell EC50 ratio (PARP in C41 cells): 0.8
O=C1CCCN1c1cccc(Cc2n[nH]c(=O)c3c2CCCC3)c1 [drawing 16]	39.6	40.9	
O=C1CCN1c1cc(Cc2n[nH]c(=O)c3c2CCCC3)ccc1F			Ki [1, 4]: 6 nM; Cell Ratio EC50 (PARP in C41 cells; Table 2, C41 cells, ratio to comparator EC50): 16.4
COc1ccc(C(=O)CCC(=O)Nc2cc(Cc3n[nH]c(=O)c4c3CCCC4)ccc2F)cc1 [drawing 15]	0.7	2.6	
O=C(c1cc(Cc2n[nH]c(=O)c3c2CCCC3)ccc1F)N1CCN(c2ccccn2)CC1 [drawing 33]	2	0.4	
O=C(c1cc(Cc2n[nH]c(=O)c3c2CCCC3)ccc1F)N1CCC(O)CC1 [drawing 47]	1.3	2	
CN1CCCN(C(=O)c2cc(Cc3n[nH]c(=O)c4c3CCCC4)ccc2F)CC1 [drawing 43]	1.5		Cell EC50 ratio (PARP in C41 cells): 0.6
NC(=O)C1CCN(C(=O)c2cccc(Cc3n[nH]c(=O)c4c3CCCC4)c2)CC1 [drawing 48]	5	215	
CN1CCCN(C(=O)c2cccc(Cc3n[nH]c(=O)c4c3CCCC4)c2)CC1 [drawing 42]	10	3.8	
O=C1CCCN1c1cc(Cc2n[nH]c(=O)c3c2CCCC3)ccc1F [drawing 7]			Ki [1, 4]: 1.2 nM; Cell Ratio EC50 (PARP in C41 cells): 0.85
CCN1CCN(C(=O)c2cc(Cc3n[nH]c(=O)c4c3CCCC4)ccc2F)CC1 [drawing 31]	1.8	0.4	
Cc1c(C(=O)Nc2cccc(Cc3n[nH]c(=O)c4c3CCCC4)c2)cnn1-c1ccccc1 [drawing 22]	9	14.1	
CC(=O)N1CCN(C(=O)c2cccc(Cc3n[nH]c(=O)c4c3CCCC4)c2)CC1 [drawing 28]	3		Cell EC50 ratio (PARP in C41 cells): 6.1
O=C(CCN1CCCCC1)Nc1cc(Cc2n[nH]c(=O)c3c2CCCC3)ccc1F	18.4		Cell EC50 ratio (PARP in C41 cells): 5.6
O=C(c1cccc(Cc2n[nH]c(=O)c3c2CCCC3)c1)N1CCN(c2ccc(F)cc2)CC1 [drawing 40]	6	2.2	
O=C(c1cccc(Cc2n[nH]c(=O)c3c2CCCC3)c1)N1CCN(c2ccccc2)CC1 [drawing 34]	3	3.2	

Structure (SMILES)	Ki [1, 2] [nM]	Cell EC50 ratio (PARP in C41 cells; [3])	other results
CCN(CC)C(=O)C1CCCN(C(=O)c2cc(Cc3n[nH]c(=O)c4c3CCCC4)ccc2F)C1 (centres unmarked) [drawing 51]	6	17	
O=C(Nc1cccc(Cc2n[nH]c(=O)c3c2CCCC3)c1)C1CNC1 [drawing 12]	6.3		Cell EC50 ratio (PARP in C41 cells): 246
O=C(c1cc(Cc2n[nH]c(=O)c3c2CCCC3)ccc1F)N1CCN(c2ncccn2)CC1 [drawing 27]	0.7	0.3	
O=C(CCCC(=O)Nc1cc(Cc2n[nH]c(=O)c3c2CCCC3)ccc1F)Nc1ccccc1 [drawing 21]	0.6	0.34	
COc1ccc(C(=O)CCC(=O)Nc2cccc(Cc3n[nH]c(=O)c4c3CCCC4)c2)cc1 [Example 173, 4-(4-methoxyphenyl)-4-oxo-N-(3-((4-oxo-3,4,5,6,7,8-hexahydrophthalazin-1-yl)methyl)phenyl)butanamide]			Ki [1, 5]: 2 nM
O=C(c1cccc(Cc2n[nH]c(=O)c3c2CCCC3)c1)N(Cc1ccccc1)Cc1ccccc1 [Example 423, N,N-dibenzyl-3-((4-oxo-3,4,5,6,7,8-hexahydrophthalazin-1-yl)methyl)benzamide]			Ki [1, 5]: 120 nM
O=C(NCCc1ccccc1F)c1cccc(Cc2n[nH]c(=O)c3c2CCCC3)c1 [Example 385, N-(2-(2-fluorophenyl)ethyl)-3-((4-oxo-3,4,5,6,7,8-hexahydrophthalazin-1-yl)methyl)benzamide]			Ki [1, 5]: 42 nM
Cc1ccc(NC(=O)c2cccc(Cc3n[nH]c(=O)c4c3CCCC4)c2)cc1Cl [Example 342, N-(3-chloro-4-methylphenyl)-3-((4-oxo-3,4,5,6,7,8-hexahydrophthalazin-1-yl)methyl)benzamide]			Ki [1, 5]: 134 nM
CCOCCC(=O)Nc1cccc(Cc2n[nH]c(=O)c3c2CCCC3)c1 [Example 138, 3-ethoxy-N-(3-((4-oxo-3,4,5,6,7,8-hexahydrophthalazin-1-yl)methyl)phenyl)propanamide]			Ki [1, 5]: 22 nM
CCc1ccc(NC(=O)c2cccc(Cc3n[nH]c(=O)c4c3CCCC4)c2)cc1 [Example 331]			Ki [1, 5]: 140 nM
O=C(c1ccc2cc[nH]c2c1)N1CCN(C(=O)c2cc(Cc3n[nH]c(=O)c4c3NCCC4)ccc2F)CC1 [Example 611, 8-(4-fluoro-3-{[4-(1H-indol-6-ylcarbonyl)piperazin-1-yl]carbonyl}benzyl)-2,3,4,6-tetrahydropyrido[2,3-d]pyridazin-5(1H)-one]			Ki [1, 5]: 1.6 nM
O=C(OCc1ccccc1)N1CCCN(C(=O)c2cc(Cc3n[nH]c(=O)c4c3CCCC4)ccc2F)CC1 [Example 544, benzyl 4-{2-fluoro-5-[(4-oxo-3,4,5,6,7,8-hexahydrophthalazin-1-yl)methyl]benzoyl}-1,4-diazepane-1-carboxylate]			Ki [1, 5]: 4 nM
Cc1ccc(NC(=O)c2cccc(Cc3n[nH]c(=O)c4c3CCCC4)c2)cc1O [Example 350, N-(3-hydroxy-4-methylphenyl)-3-((4-oxo-3,4,5,6,7,8-hexahydrophthalazin-1-yl)methyl)benzamide]			Ki [1, 5]: 143 nM
O=C(c1cc(Cc2n[nH]c(=O)c3c2CCCC3)ccc1F)N1CCN(C(=O)N2CCCC2)CC1 [Example 576, 4-(4-fluoro-3-{[4-(pyrrolidine-1-ylcarbonyl)piperazin-1-yl]carbonyl}benzyl)-5,6,7,8-tetrahydrophthalazin-1(2H)-one]			Ki [1, 5]: 0.9 nM
C[C@@H]1CN(C(=O)c2ccccc2)CCN1C(=O)c1cc(Cc2n[nH]c(=O)c3c2NCCC3)ccc1F [Example 616, 8-(3-{[(2R)-4-benzoyl-2-methylpiperazin-1-yl]carbonyl}-4-fluorobenzyl)-2,3,4,6-tetrahydropyrido[2,3-d]pyridazin-5(1H)-one]			Ki [1, 5]: 2.3 nM
O=c1[nH]nc(Cc2ccc(F)c(Br)c2)c2ncccc12 [Example 415]			Ki [1, 5]: 3200 nM
CO[C@H](C(=O)Nc1cccc(Cc2n[nH]c(=O)c3c2CCCC3)c1)c1ccccc1 [Example 152, (2S)-2-methoxy-N-(3-((4-oxo-3,4,5,6,7,8-hexahydrophthalazin-1-yl)methyl)phenyl)-2-phenylacetamide]			Ki [1, 5]: 741 nM
O=C(NCCc1ccccn1)c1cccc(Cc2n[nH]c(=O)c3c2CCCC3)c1 [Example 379, 3-((4-oxo-3,4,5,6,7,8-hexahydrophthalazin-1-yl)methyl)-N-(2-pyridin-2-ylethyl)benzamide]			Ki [1, 5]: 20 nM
